Assay results as given in PMC10035947, “Development of novel anilinoquinazoline-based carboxylic acids as non-classical carbonic anhydrase IX and XII inhibitors” (Journal of Enzyme Inhibition and Medicinal Chemistry, 2023).

Experiments:
[1] = test system: IGROV1; assay: NCI SRB assay; assay type: cell-based, human
[2] = test system: HOP-62; assay: NCI SRB assay; assay type: cell-based, human
[3] = test system: SW-620; assay: NCI SRB assay; assay type: cell-based, human
[4] = test system: OVCAR-5; assay: NCI SRB assay; assay type: cell-based, human
[5] = test system: EKVX; assay: NCI SRB assay; assay type: cell-based, human
[6] = test system: SNB-75; assay: NCI SRB assay; assay type: cell-based, human
[7] = test system: MOLT-4; assay: NCI SRB assay; assay type: cell-based, human
[8] = test system: A549/ATCC; assay: NCI SRB assay; assay type: cell-based, human; conditions: A549/ATCC
[9] = target: T1, hCA II (Homo sapiens, UniProt P00918); assay: stopped flow CO2 hydrase assay; assay type: biochemical; conditions: mean from 3 assays
T1 construct: made in house
Method: Carbonic anhydrase inhibition assay
The carbonic anhydrase catalyzed CO2 hydration actions for the quinazoline-based carboxylic acid derivatives (6a-c, 7a-c and 8a-c) were assayed utilizing an instrument of Applied Photophysics stopped-flow, as described previously. The enzymes are recombinant proteins prepared in our lab. Phenol red (at a concentration of 0.2 mM) has been used as indicator, working at the absorbance maximum of 557 nm, with 20 mM Hepes (pH 7.5) as buffer, and 20 mM Na2SO4 (for maintaining constant the ionic strength), following the initial rates of the CA- […]
1.7 to 17 mM for the determination of the kinetic parameters and inhibition constants. For each inhibitor at least six traces of the initial 5-10% of the reaction have been used for determining the initial velocity. The uncatalyzed rates were determined in the same manner and subtracted from the total observed rates. Stock solutions of inhibitor (0.1 mM) were prepared in distilled-deionized water and dilutions up to 0.01 nM were done thereafter with the assay buffer. Inhibitor and enzyme solutions were preincubated together for 15 min at room temperature prior to assay, in order to allow for the formation of the E-I complex. The inhibition constants were obtained by non-linear least-squares methods using PRISM 3 and the Cheng-Prusoff equation, and represent the mean from at least three different determinations.

[10] = test system: M14; assay: NCI SRB assay; assay type: cell-based, human
[11] = test system: HL-60(TB); assay: NCI SRB assay; assay type: cell-based, human; conditions: HL-60(TB)
[12] = test system: NCI-H23; assay: NCI SRB assay; assay type: cell-based, human
[13] = test system: CAKI-1; assay: NCI SRB assay; assay type: cell-based, human
[14] = test system: LOX IMVI; assay: NCI SRB assay; assay type: cell-based, human
[15] = test system: BT-549; assay: NCI SRB assay; assay type: cell-based, human
[16] = test system: COLO 205; assay: NCI SRB assay; assay type: cell-based, human
[17] = test system: OVCAR-4; assay: NCI SRB assay; assay type: cell-based, human
[18] = test system: T-47D; assay: NCI SRB assay; assay type: cell-based, human
[19] = test system: CCRF-CEM; assay: NCI SRB assay; assay type: cell-based, human
[20] = test system: SK-OV-3; assay: NCI SRB assay; assay type: cell-based, human
[21] = test system: UACC-62; assay: NCI SRB assay; assay type: cell-based, human
[22] = test system: MCF7; assay: NCI SRB assay; assay type: cell-based, human
[23] = test system: U251; assay: NCI SRB assay; assay type: cell-based, human
[24] = test system: 786-0; assay: NCI SRB assay; assay type: cell-based, human
[25] = test system: HCT-15; assay: NCI SRB assay; assay type: cell-based, human
[26] = test system: ACHN; assay: NCI SRB assay; assay type: cell-based, human
[27] = test system: NCI-H460; assay: NCI SRB assay; assay type: cell-based, human

SMILES: Cc1cccc(-c2nc(Nc3ccccc3C(=O)O)c3ccccc3n2)c1 [6a, 2-((2-(m-Tolyl)quinazolin-4-yl)amino)benzoic acid]
- GI% ([1]; IGROV1, 10 μM): 41%
- Growth Percent ([1]; IGROV1, 1.00E-5 Molar): 59.24%
- GI% ([2]; HOP-62, 10 μM): 54%
- Growth Percent ([2]; HOP-62, 1.00E-5 Molar): 46.18%
- GI% ([3]; SW-620, 10 μM): 65%
- Growth Percent ([3]; SW-620, 1.00E-5 Molar): 35.45%
- GI% ([4]; OVCAR-5, 10 μM): 23%
- Growth Percent ([4]; OVCAR-5, 1.00E-5 Molar): 77.00%
- GI% ([5]; 10 μM): 79%
- Growth Percent ([5]; 1.00E-5 Molar): 20.98%
- GI% ([6]; SNB-75, 10 μM): 45%
- Growth Percent ([6]; SNB-75, 1.00E-5 Molar): 55.27%
- GI% ([7]; MOLT-4, 10 μM): 65%
- Growth Percent ([7]; MOLT-4, 1.00E-5 Molar): 34.28%
- GI% ([8]; 10 μM): 56%
- Growth Percent ([8]; 1.00E-5 Molar): 43.63%
- Ki [9]: 85.2 µM
- GI% ([10]; M14, 10 μM): 75%
- Growth Percent ([10]; M14, 1.00E-5 Molar): 25.25%
- GI% ([11]; 10 μM): 60%
- Growth Percent ([11]; 1.00E-5 Molar): 39.37%
- GI% ([12]; NCI-H23, 10 μM): 79%
- Growth Percent ([12]; NCI-H23, 1.00E-5 Molar): 20.79%
- GI% ([13]; CAKI-1, 10 μM): 48%
- Growth Percent ([13]; CAKI-1, 1.00E-5 Molar): 52.39%
- GI% ([14]; 10 μM): 64%
- Growth Percent ([14]; 1.00E-5 Molar): 36.42%
- GI% ([15]; BT-549, 10 μM): 100%
- Growth Percent ([15]; BT-549, 1.00E-5 Molar): -0.68%
- GI% ([16]; COLO 205, 10 μM): – (Only GI% higher than 20% are shown)
- Growth Percent ([16]; COLO 205, 1.00E-5 Molar): 120.57%
- GI% ([17]; OVCAR-4, 10 μM): 58%
- Growth Percent ([17]; OVCAR-4, 1.00E-5 Molar): 41.88%
- GI% ([18]; 10 μM): 73%
- Growth Percent ([18]; 1.00E-5 Molar): 26.79%
- GI% ([19]; 10 μM): 82%
- Growth Percent ([19]; 1.00E-5 Molar): 17.83%
- GI% ([20]; SK-OV-3, 10 μM): 24%
- Growth Percent ([20]; SK-OV-3, 1.00E-5 Molar): 76.74%
- GI% ([21]; UACC-62, 10 μM): 72%
- Growth Percent ([21]; UACC-62, 1.00E-5 Molar): 28.00%
- GI% ([22]; MCF7, 10 μM): 76%
- Growth Percent ([22]; MCF7, 1.00E-5 Molar): 23.97%
- GI% ([23]; U251, 10 μM): 73%
- Growth Percent ([23]; U251, 1.00E-5 Molar): 26.61%
- GI% ([24]; 786-0, 10 μM): 75%
- Growth Percent ([24]; 786-0, 1.00E-5 Molar): 25.01%
- GI% ([25]; HCT-15, 10 μM): 86%
- Growth Percent ([25]; HCT-15, 1.00E-5 Molar): 14.29%
- GI% ([26]; 10 μM): 63%
- Growth Percent ([26]; 1.00E-5 Molar): 36.44%
- GI% ([27]; NCI-H460, 10 μM): 81%
- Growth Percent ([27]; NCI-H460, 1.00E-5 Molar): 19.15%
